The values that follow are results of earlier work, collected in publication PMC7867784 (Translational Lung Cancer Research, 2021).

The subject of this data set is RET-rearranged NSCLC. The conditions noted are these: cited from earlier work; for response rate and PFS in NSCLC with RET rearrangement: recent clinical trials.

With `COc1cc2nccc(Oc3ccc(NC(=O)C4(C(=O)Nc5ccc(F)cc5)CC4)cc3)c2cc1OC` [cabozantinib], under “RET-rearranged NSCLC, 7/25 cases”, the response rate was 28%. In addition, the “median PFS” value (RET-rearranged NSCLC) was 5.5 months.

For `CO[C@]1(C(=O)N[C@@H](C)c2ccc(-n3cc(F)cn3)nc2)CC[C@H](c2nc(C)cc(Nc3cc(C)[nH]n3)n2)CC1` [pralsetinib], the “response rate and PFS in NSCLC with RET rearrangement” value was “high response rate and prolonged PFS”.

Turning to `COc1ccc(CN2C3CC2CN(c2ccc(-c4cc(OCC(C)(C)O)cn5ncc(C#N)c45)cn2)C3)cn1` [selpercatinib], the “response rate and PFS in NSCLC with RET rearrangement” value was “high response rate and prolonged PFS”.
